# From publication PMC9133015 (Nature Communications, 2022)
# Values joined by “and” are separate entries in the source; they are usually repeats but may differ in a detail not shown here. Identical values can stand only once. “Also recorded” adds a separate entry of the source.
# Legend:
# PC-3 cells = assay: Apoptosis assay (Annexin V-APC/PI flow cytometry); format: cell-based, human; conditions: for Apoptosis (%): PC-3, replicates
# 22Rv1 cells [1] = assay: Apoptosis assay (Annexin V-APC/PI flow cytometry); format: cell-based, human; conditions: for Apoptosis (%): replicates
# DU145 cells = assay: Apoptosis assay (Annexin V-APC/PI flow cytometry); format: cell-based, human; conditions: for Apoptosis (%): replicates
# DU145 xenograft = assay: In vivo antitumor activity, DU145 xenograft mouse model; set-up: species or system BALB/c nude mice; conditions: for Tumor weight (Fig. 7c): individual mice; for Tumor volume (Fig. 7a): in cm³ (unit assumed)
# 22Rv1 cells [2] = assay: Anti-proliferation activity assay (CCK8, 72 h); format: cell-based, human; conditions: 22Rv1; for Relative proliferation rate (%) / optical density: replicates
# [3] = YK-2-69 (100 mg/kg), Day 37, individual mice, 100 mg/kg
# [4] = YK-2-69 (100 mg/kg), Day 39, individual mice, 100 mg/kg
# [5] = YK-2-69 (100 mg/kg), Day 41, individual mice, 100 mg/kg
# [6] = YK-2-69 (100 mg/kg), Day 43, individual mice, 100 mg/kg
# [7] = YK-2-69 (100 mg/kg), Day 45, individual mice, 100 mg/kg
# [8] = YK-2-69 (100 mg/kg), Day 49, individual mice, 100 mg/kg
# [9] = YK-2-69 (200 mg/kg), Day 1, individual mice, 200 mg/kg
# [10] = YK-2-69 (200 mg/kg), Day 5, individual mice, 200 mg/kg
smiles,measurement,setting,value
CCN1CCN(C(=O)c2ccc(Nc3ncc(F)c(-c4ccc5nc(N(C)C)sc5c4)n3)nc2)CC1 [YK-2-69],Apoptosis (%),PC-3 cells; 0.5 µM,5.98% and 6.29% and 6.68%
same,Apoptosis (%),PC-3 cells; 1 µM,7.85% and 8.04% and 8.54%
same,Apoptosis (%),PC-3 cells; 2 µM,12.28% and 13.62% and 14.23%
same,apoptosis (in words),"PC-3 cells; PC-3 cells, concentration-dependent",significant increase of the apoptotic cell population
same,Apoptosis (%),"22Rv1 cells [1]; 22Rv1, 0.5 μM",10.56% and 11.41% and 12.03%
same,Apoptosis (%),"22Rv1 cells [1]; 22Rv1, 1 μM",18.52% and 20.96% and 19.24%
same,Apoptosis (%),"22Rv1 cells [1]; 22Rv1, 2 μM",26.56% and 24.71% and 24.31%
same,apoptosis (in words),"22Rv1 cells [1]; 22Rv1 cells, concentration-dependent",significant increase of the apoptotic cell population
same,Apoptosis (%),"DU145 cells; DU145, 2 μM",9.32% and 10.11% and 8.62%
same,Apoptosis (%),"DU145 cells; DU145, 4 μM",11.15% and 12.55% and 13.62%
same,Apoptosis (%),"DU145 cells; DU145, 8 μM",26.62% and 31.08% and 30.25%
same,apoptosis (in words),"DU145 cells; DU145 cells, concentration-dependent",significant increase of the apoptotic cell population
same,body weight of mice (in words),"DU145 xenograft; DU145 xenograft, 200 mg/kg orally once a day",increased gradually
same,antitumor activity (in words),"DU145 xenograft; DU145 xenograft, 200 mg/kg orally once a day, seven weeks, 200 mg/kg",much better antitumor activities than both enzalutamide and palbociclib; also recorded: decreased the volume of tumor since the 31st day
same,Tumor weight (Fig. 7c),"DU145 xenograft; High dose, in g (unit assumed)",0.51 and 0.47 and 0.43 and 0.45 and 0.62 and 0.73 and 0.69 and 0.41
same,Tumor weight (Fig. 7c),"DU145 xenograft; Low dose, in g (unit assumed)",1.34 and 1.32 and 1.29 and 1.36 and 1.47 and 1.24 and 1.68 and 1.73 and 1.54 and 1.49
same,Body weight (Fig. 7b),DU145 xenograft; [3],26.5 and 24.2 and 25.7 and 25.5 (2×) and 24.9 and 24.6 and 25.2 and 25.6 and 26.6
same,Tumor volume (Fig. 7a),DU145 xenograft; [3],0.9849 and 0.8117 and 1.322 and 0.8631 and 0.9203 and 0.6445 and 0.8644 and 1.073 and 1.152 and 1.1772
same,Body weight (Fig. 7b),DU145 xenograft; [4],26.2 and 24.5 and 25.9 and 25.8 (2×) and 25.3 and 24.9 and 25.4 and 26 and 26.8
same,Tumor volume (Fig. 7a),DU145 xenograft; [4],0.957 and 0.8113 and 1.305 and 0.8461 and 0.9452 and 0.6025 and 0.7668 and 1.032 and 1.21 and 1.322
same,Body weight (Fig. 7b),DU145 xenograft; [5],26.4 and 24.6 and 26.1 and 25.8 and 25.6 (2×) and 25.2 and 26.3 and 26 and 26.5
same,Tumor volume (Fig. 7a),DU145 xenograft; [5],1.01 and 0.8586 and 1.367 and 0.9073 and 0.9955 and 0.6291 and 0.7765 and 1.063 and 1.256 and 1.304
same,Body weight (Fig. 7b),DU145 xenograft; [6],26.7 and 25 and 26.3 (2×) and 25.9 (2×) and 25.4 and 26.5 and 25.7 and 26.6
same,Tumor volume (Fig. 7a),DU145 xenograft; [6],1.081 and 0.9018 and 1.428 and 0.9736 and 1.066 and 0.6924 and 0.8141 and 1.105 and 1.304 and 1.393
same,Body weight (Fig. 7b),DU145 xenograft; [7],26.9 (2×) and 25.2 and 26.7 and 26.2 and 26.3 and 25.7 and 26.8 and 25.9 and 26.5
same,Tumor volume (Fig. 7a),DU145 xenograft; [7],1.137 and 0.9183 and 1.533 and 1.03 and 1.104 and 0.7734 and 0.8511 and 1.184 and 1.29 and 1.475
same,Tumor volume (Fig. 7a),"DU145 xenograft; YK-2-69 (100 mg/kg), Day 47, individual mice, 100 mg/kg",1.209 and 0.991 and 1.624 and 1.045 and 1.005 and 0.829 and 0.881 and 1.225 and 1.336 and 1.553
same,Body weight (Fig. 7b),"DU145 xenograft; YK-2-69 (100 mg/kg), Day 47, individual mice, 100 mg/kg, in g (unit assumed)",27.2 and 25.5 and 26.9 and 26.3 and 26.6 and 25.8 and 27.1 and 26 and 26.8 and 27.4
same,Body weight (Fig. 7b),DU145 xenograft; [8],27.5 and 25.8 and 27.1 (3×) and 26.6 and 26.9 and 26.1 and 27.3 and 26.2
same,Tumor volume (Fig. 7a),DU145 xenograft; [8],1.289 and 1.004 and 1.711 and 1.157 and 1.055 and 0.8821 and 0.8937 and 1.296 and 1.303 and 1.663
same,Body weight (Fig. 7b),DU145 xenograft; [9],19.6 and 20.5 and 20.2 (2×) and 19.9 and 20.3 and 20.7 and 21.4 and 21 and 20
same,Tumor volume (Fig. 7a),DU145 xenograft; [9],0.07862 and 0.07877 and 0.07202 and 0.06915 and 0.0797 and 0.06867 and 0.07232 and 0.09045 and 0.0645 and 0.09096
same,Tumor volume (Fig. 7a),"DU145 xenograft; YK-2-69 (200 mg/kg), Day 3, individual mice, 200 mg/kg",0.1045 and 0.1116 and 0.1049 and 0.08973 and 0.1165 and 0.1011 and 0.1007 and 0.1453 and 0.08834 and 0.1272
same,Body weight (Fig. 7b),"DU145 xenograft; YK-2-69 (200 mg/kg), Day 3, individual mice, 200 mg/kg, in g (unit assumed)",19.9 and 20.6 and 20.5 and 20.2 and 20.7 and 21.5 and 21.3 and 20.3 and 20.1
same,Body weight (Fig. 7b),"DU145 xenograft; YK-2-69 (200 mg/kg), Day 3, individual mice, in g (unit assumed)",21
same,Body weight (Fig. 7b),DU145 xenograft; [10],20.2 and 20.9 and 20.8 and 20.4 and 21.1 (2×) and 21.8 and 21.6 and 20.3 and 20.5
same,Tumor volume (Fig. 7a),DU145 xenograft; [10],0.1323 and 0.1488 and 0.1486 and 0.1179 and 0.1568 and 0.1343 and 0.1497 and 0.2074 and 0.1183 and 0.1702
same,Relative proliferation rate (%) mean,22Rv1 cells [2]; 0.0049 uM,8.6252%
same,Relative proliferation rate (%),22Rv1 cells [2]; 0.0049 uM,6.856% and 10.4024% and 8.617%
same,optical density,22Rv1 cells [2]; 0.0049 uM,0.951 and 0.913 and 0.912
same,Relative proliferation rate (%) mean,22Rv1 cells [2]; 0.078 uM,28.6346%
same,Relative proliferation rate (%),22Rv1 cells [2]; 0.078 uM,32.9089% and 24.3376% and 28.6573%
same,optical density,22Rv1 cells [2]; 0.078 uM,0.685 and 0.771 and 0.712
same,Relative proliferation rate (%) mean,22Rv1 cells [2]; 0.3125 uM,33.639%
